From US9351955B2, “Compounds and pharmaceutical compositions thereof for the treatment of cystic fibrosis” (Galapagos NV, priority 2013, dated 2016)
pEC50: −log10 of the molar value.

Experiments:
CFTR G551D mutant = target: T1, CFTR G551D mutant (Homo sapiens, UniProt P13569, G551D); test: YFP-halide influx assay for the CFTR-G551D mutation (HEK293 cells); type: cell-based; conditions: HEK293 cells expressing CFTR G551D and YFP reporter; forskolin 10.67 μM; read-out: EC50 measured by YFP-halide influx assay for the CFTR-G551D
T1 construct: expressed in transfected cells; host or cells: HEK293 (reverse transfection with plasmids)
How it was run: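 HEK293 cells reverse-transfected with CFTR G551D and halide-sensitive YFP, expressed 24 h at 37 °C. Iodide-induced fluorescence quench recorded for 7 s after I^− injection; response as 1−F/F0, EC50 from concentration plot.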

CFTR ΔF508 mutant = target: T2, CFTR ΔF508 mutant (Homo sapiens, UniProt P13569, DEL508-508); test: YFP-halide influx assay for the CFTR-ΔF508 mutation (96 well, CFBE41o- cells); type: cell-based; conditions: compounds of the invention, 96 well, forskolin 10.67 μM, read-out: EC50 measured by YFP-halide influx assay for the CFTR-ΔF508
T2 construct: expressed in transfected cells; host or cells: CFBE41o- (adenoviral transduction)
How it was run: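 CFBE41o- cells were adenovirally transduced with CFTR ΔF508 and the halide-sensitive YFP H148Q/I152L. They were then corrected either at 27 °C for 24 h or with a CFTR modulator for 24 h at 37 °C. After iodide injection, YFP quenching over 7 s was expressed as 1−F/F0, and EC50 was derived from the concentration–response plot.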

T1 sequence (P13569 whole entry G551D): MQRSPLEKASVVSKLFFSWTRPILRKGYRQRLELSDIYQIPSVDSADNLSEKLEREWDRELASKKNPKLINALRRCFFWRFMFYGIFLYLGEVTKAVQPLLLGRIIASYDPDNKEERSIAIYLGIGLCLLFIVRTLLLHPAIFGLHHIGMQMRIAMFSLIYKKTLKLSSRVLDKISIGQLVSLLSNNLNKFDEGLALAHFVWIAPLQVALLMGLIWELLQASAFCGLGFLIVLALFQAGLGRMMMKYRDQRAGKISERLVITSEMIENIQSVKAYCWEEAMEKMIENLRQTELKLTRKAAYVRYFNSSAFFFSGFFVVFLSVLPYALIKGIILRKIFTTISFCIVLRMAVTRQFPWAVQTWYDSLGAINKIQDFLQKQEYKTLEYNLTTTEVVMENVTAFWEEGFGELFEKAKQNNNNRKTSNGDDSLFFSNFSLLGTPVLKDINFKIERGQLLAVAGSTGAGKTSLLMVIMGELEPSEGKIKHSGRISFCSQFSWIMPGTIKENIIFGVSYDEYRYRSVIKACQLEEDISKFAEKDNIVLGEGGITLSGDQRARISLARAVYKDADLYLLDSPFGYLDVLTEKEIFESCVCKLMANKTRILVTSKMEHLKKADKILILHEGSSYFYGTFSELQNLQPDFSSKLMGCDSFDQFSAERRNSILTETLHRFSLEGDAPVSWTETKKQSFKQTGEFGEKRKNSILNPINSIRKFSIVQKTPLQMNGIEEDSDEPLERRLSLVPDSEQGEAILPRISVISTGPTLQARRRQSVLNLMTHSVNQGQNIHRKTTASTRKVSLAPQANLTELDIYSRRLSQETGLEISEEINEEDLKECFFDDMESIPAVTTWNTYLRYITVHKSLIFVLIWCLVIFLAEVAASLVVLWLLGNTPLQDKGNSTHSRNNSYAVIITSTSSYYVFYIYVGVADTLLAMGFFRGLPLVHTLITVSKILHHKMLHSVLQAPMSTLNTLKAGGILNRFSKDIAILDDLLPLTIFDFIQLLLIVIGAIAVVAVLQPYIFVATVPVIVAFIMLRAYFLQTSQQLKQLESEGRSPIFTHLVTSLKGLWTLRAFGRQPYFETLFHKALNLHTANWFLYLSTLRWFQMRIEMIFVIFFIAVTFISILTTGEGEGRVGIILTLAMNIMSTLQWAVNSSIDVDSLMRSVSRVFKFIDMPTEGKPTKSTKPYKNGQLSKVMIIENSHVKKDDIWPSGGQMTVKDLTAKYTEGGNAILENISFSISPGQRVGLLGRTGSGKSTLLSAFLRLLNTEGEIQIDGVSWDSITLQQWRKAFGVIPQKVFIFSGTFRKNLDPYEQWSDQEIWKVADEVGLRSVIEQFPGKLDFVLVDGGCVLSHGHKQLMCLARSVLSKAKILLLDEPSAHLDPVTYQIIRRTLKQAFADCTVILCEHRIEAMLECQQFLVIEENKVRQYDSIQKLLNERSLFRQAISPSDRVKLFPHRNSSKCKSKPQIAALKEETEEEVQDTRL
T2 sequence (P13569 with tags, fused parts or gaps DEL508-508): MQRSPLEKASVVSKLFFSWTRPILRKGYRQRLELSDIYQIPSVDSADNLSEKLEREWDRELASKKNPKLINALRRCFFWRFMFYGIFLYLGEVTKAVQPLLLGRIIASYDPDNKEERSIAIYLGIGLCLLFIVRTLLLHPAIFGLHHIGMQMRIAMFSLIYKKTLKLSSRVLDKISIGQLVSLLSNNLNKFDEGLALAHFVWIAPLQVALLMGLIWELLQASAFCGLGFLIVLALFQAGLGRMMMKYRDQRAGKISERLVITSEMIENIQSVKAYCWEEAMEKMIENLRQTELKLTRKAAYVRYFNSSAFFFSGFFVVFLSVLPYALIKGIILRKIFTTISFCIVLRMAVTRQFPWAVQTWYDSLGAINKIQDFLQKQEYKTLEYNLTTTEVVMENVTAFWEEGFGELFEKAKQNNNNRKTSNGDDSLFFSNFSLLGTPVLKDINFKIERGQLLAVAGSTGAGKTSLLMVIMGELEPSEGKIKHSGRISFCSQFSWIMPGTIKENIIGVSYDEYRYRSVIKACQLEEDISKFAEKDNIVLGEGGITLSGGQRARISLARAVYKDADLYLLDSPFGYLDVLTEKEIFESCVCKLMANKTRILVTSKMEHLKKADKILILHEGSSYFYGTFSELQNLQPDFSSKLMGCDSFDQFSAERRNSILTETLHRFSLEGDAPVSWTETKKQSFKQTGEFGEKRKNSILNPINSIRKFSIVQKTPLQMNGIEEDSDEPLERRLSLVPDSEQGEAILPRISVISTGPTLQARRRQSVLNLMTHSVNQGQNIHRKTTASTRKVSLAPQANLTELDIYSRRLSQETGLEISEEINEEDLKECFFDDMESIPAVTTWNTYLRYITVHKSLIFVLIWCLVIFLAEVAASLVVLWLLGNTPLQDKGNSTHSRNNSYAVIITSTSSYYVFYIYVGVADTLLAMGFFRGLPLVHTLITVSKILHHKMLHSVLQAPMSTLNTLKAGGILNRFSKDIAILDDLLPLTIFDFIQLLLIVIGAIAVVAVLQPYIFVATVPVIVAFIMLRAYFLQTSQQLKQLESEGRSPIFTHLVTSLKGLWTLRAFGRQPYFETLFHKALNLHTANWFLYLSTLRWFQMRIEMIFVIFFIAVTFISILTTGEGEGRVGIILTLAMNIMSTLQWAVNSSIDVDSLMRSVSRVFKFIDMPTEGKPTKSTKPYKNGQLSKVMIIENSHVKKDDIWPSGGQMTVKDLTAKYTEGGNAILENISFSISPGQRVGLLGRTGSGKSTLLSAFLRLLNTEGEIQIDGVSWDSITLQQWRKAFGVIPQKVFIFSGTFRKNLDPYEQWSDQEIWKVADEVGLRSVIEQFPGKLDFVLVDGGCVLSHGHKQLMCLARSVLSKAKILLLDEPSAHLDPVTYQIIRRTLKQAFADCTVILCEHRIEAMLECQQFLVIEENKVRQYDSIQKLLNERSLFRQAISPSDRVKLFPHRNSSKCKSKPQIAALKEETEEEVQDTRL

pEC50 (CFTR G551D mutant) | pEC50 (CFTR ΔF508 mutant) | SMILES
6.30 | 8.00 | CC1(C)Cc2c(sc(NC(=O)c3ccn[nH]3)c2C(N)=O)C(C)(C)O1 [Compound 2, N-(3-carbamoyl-5,5,7,7-tetramethyl-5,7-dihydro-4H-thieno[2,3-c]pyran-2-yl)-1H-pyrazole-5-carboxamide]
5.87 | 7.49 | CC1(C)Cc2c(sc(NC(=O)C3(O)CC3)c2C(N)=O)C(C)(C)O1 [Compound 4, 2-(1-hydroxycyclopropanecarboxamido)-5,5,7,7-tetramethyl-5,7-dihydro-4H-thieno[2,3-c]pyran-3-carboxamide]
5.58 | 6.92 | CC1(C)Cc2c(sc(NC(=O)C(C)(C)CO)c2C(N)=O)C(C)(C)O1 [Compound 10, 2-(3-hydroxy-2,2-dimethylpropanamido)-5,5,7,7-tetramethyl-5,7-dihydro-4H-thieno[2,3-c]pyran-3-carboxamide]
6.00 | 7.55 | CC1(C)Cc2c(sc(NC(=O)C3(CO)CC3)c2C(N)=O)C(C)(C)O1 [Compound 9, 2-(1-(hydroxymethyl)cyclopropanecarboxamido)-5,5,7,7-tetramethyl-5,7-dihydro-4H-thieno[2,3-c]pyran-3-carboxamide]
